Test results as given in US6562809B1, “3-bicycloindole compounds” (NPS Allelix Corp., priority 1998, dated 2003).

Columns and labels:
5-HT1B receptor = target: T1, 5-HT1B receptor (Homo sapiens, UniProt P28222); experiment: Binding affinity, 3H-serotonin displacement from membranes of cells expressing 5-HT1B; settings: 3H-serotonin 2.5 nM; 60 minute incubation at 22° C.; 100 nM test compound given only for 5-HT1D; read-out: percent inhibition at the 5-HT1B receptor
T1 construct: expressed in transfected cells
Description: (§1) Selected compounds of the previous examples, as well as reference compounds were evaluated for binding affinity using cell types receptive specifically to 5-HT1D and 5-HT1B ligands. The assay protocol generally entailed the incubation of membranes prepared from cells expressing the 5-HT1D or 5-HT1B subtype of 5-HT receptors with ^3H-serotonin (1 nM for 5-HT1D and 2.5 nM for 5-HT1B). Specific concentrations of the test compound were incubated with the radioligand and the membrane homogenates prepared from the recombinant cells. After a 60 minute incubation at 22° C., the incubation was terminated by vacuum filtration. The filters were washed with buffer and counted for radioactivity using liquid scintillation spectroscopy. The affinity of the test compound for the 5-HT1D receptor is expressed as the amount (in percent) of binding of the radioligand that is inhibited in the presence of 100 nM of test compound. A greater percent inhibition indicates greater affinity for the 5-HT1D receptor.

5-HT1D receptor [1] = target: T2, 5-HT1D receptor (Homo sapiens, UniProt P28221); experiment: Binding affinity, 3H-serotonin displacement from membranes of cells expressing 5-HT1D; settings: 100 nM of test compound; 3H-serotonin 1 nM; 60 minute incubation at 22° C.; read-out: percent inhibition of binding of the radioligand at the 5-HT1D receptor
T2 construct: expressed in transfected cells
Description: as §1

5-HT1D receptor [2] = target: T2, 5-HT1D receptor; experiment: Functional assay, inhibition of forskolin-stimulated adenyl cyclase (cAMP) in CHO Pro 5 cells; format: cell-based; settings: CHO cells stably expressing the 5-HT1D receptor; concentrations of 100 nM and 10 μM
Description: The 5HT1D and 5HT1B receptor subtypes respond to serotonin and other agonists by reducing adenyl cyclase mediated production of cyclic AMP. Particular test compounds were assayed for their ability to inhibit adenyl cyclase activity using the procedure described below. Forskolin was used to elevate the basal adenyl cyclase activity.
Compounds acting as antagonists at the 5HT1D and 5HT1B receptor subtypes will antagonize the agonist effect of serotonin and thus, will block the serotonin-induced inhibition of forskolin-stimulated adenyl cyclase activity. […]
The culture media of each well was removed, and the wells were washed once with serum free media. […] Basal adenyl cyclase activity was determined from wells with only SFM+IBMX media added.
The cells were then incubated at 37° C. for 30 minutes in a CO2 incubator. […] The pellets were discarded and the supernatants were stored at 4° C. until assayed for cAMP concentration. cAMP content for each extract was determined in duplicate by EIA (enzyme-immunoassay) using the Amersham Biotrak cAMP EIA kit (Amersham RPN 225).
Total inhibition (Io) of forskolin-stimulated adenyl cyclase activity by serotonin was determined as the difference in concentration of cAMP in the forskolin-treated cells (Cf) and serotonin-forskolin treated cells (Cd). […]

T1 sequence (P28222 whole entry): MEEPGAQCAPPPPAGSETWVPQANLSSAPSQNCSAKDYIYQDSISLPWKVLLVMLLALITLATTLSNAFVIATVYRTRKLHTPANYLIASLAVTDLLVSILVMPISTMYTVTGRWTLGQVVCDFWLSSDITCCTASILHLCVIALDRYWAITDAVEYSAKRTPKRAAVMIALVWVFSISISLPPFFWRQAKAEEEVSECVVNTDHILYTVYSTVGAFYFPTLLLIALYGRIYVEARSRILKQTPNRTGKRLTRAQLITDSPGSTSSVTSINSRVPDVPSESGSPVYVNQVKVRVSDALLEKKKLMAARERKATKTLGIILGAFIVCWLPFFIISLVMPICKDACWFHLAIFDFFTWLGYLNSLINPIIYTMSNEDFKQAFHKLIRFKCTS
T2 sequence (P28221 whole entry): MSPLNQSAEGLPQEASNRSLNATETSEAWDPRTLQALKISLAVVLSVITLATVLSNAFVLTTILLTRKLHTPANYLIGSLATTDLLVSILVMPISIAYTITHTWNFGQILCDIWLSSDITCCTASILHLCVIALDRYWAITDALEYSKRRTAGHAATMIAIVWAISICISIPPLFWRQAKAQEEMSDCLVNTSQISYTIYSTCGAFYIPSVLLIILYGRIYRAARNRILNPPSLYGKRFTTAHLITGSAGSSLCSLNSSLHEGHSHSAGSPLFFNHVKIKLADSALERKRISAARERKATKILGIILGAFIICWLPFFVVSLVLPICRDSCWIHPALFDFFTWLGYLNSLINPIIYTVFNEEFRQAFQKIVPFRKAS

Structure (SMILES)	inhibition at 0.1 µM (5-HT1B receptor)	inhibition at 0.1 µM (5-HT1D receptor [1])	forskolin stimulated production of cAMP (agonist activity) (5-HT1D receptor [2])
CC(C)c1ccc2[nH]cc(C3CCN4CCCC4C3)c2c1 (single isomer, unassigned) [Example 9c, 5-Isopropyl-3-[(7R or 7S)(8a-R,S)-octahydro-7-indolizinyl]-1H-indole]	< 50%	> 75%	–
COc1ccc2[nH]cc(C3=CCN4CCCC4C3)c2c1 [Example 3b, 5-Methoxy-3-[(8a-R,S)-1,2,3,5,8,8a-hexahydro-7-indolizinyl]-1H-indole]	< 50%	> 75%	–
Cc1ccc2[nH]cc(C3=CCN4CCCC4C3)c2c1 [Example 3c, 5-Methyl-3-[(8a-R,S)-1,2,3,5,8,8a-hexahydro-7-indolizinyl]-1H-indole]	< 50%	> 75%	–
CC(C)c1ccc2[nH]cc(C3=CCN4CCCC4C3)c2c1 [Example 3d, 5-Isopropyl-3-[(8a-R,S)-1,2,3,5,8,8a-hexahydro-7-indolizinyl]-1H-indole]	< 50%	> 75%	decrease
Brc1ccc2[nH]cc(C3=CCN4CCCC4C3)c2c1 [Example 3e, 5-Bromo-3-[(8a-R,S)-1,2,3,5,8,8a-hexahydro-7-indolizinyl]-1H-indole]	–	> 75%	–
C1=C(c2c[nH]c3ccc(OC4CCCCC4)cc23)CC2CCCN2C1 [Example 3f, 5-Cyclohexyloxy-3-[(8a-R,S)-1,2,3,5,8,8a-hexahydro-7-indolizinyl]-1H-indole]	–	> 75%	–
C1=C(c2c[nH]c3ccc(-c4cccs4)cc23)CC2CCCN2C1 [Example 3g, 5-(2-Thienyl)-3-[(8a-R,S)-1,2,3,5,8,8a-hexahydro-7-indolizinyl]-1H-indole]	–	> 75%	–
OC1(c2ccc3[nH]cc(C4=CCN5CCCC5C4)c3c2)CCCCC1 [Example 3h, 1-{[3-(8a-R,S)-1,2,3,5,8,8a-Hexahydro-7-indolizinyl]-1H-indol-5-yl}cyclohexanol]	< 50%	> 75%	–
CC1=C(c2c[nH]c3ccc(C(C)C)cc23)CC2CCCN2C1 [Example 6, 5-Isopropyl-3-[(8a,R,S)-6-methyl-1,2,3,5,8,8a-hexahydro-7-indolizinyl]-1H-indole]	< 50%	> 75%	–
OC1(c2ccc3[nH]cc(C4=CCN5CCCC5C4)c3c2)CCOCC1 [Example 7, 4-{[3-(8a-R,S)-1,2,3,5,8,8a-Hexahydro-7-indolizinyl]-1H-indol-5-yl}tetrahydro-2H-pyran-4-ol]	< 50%	> 75%	–
C1=C(c2ccc3[nH]cc(C4=CCN5CCCC5C4)c3c2)CCOC1 [Example 8a, 5-(5,6-Dihydro-2H-pyran-4-yl)-3-[(8a-R,S)-1,2,3,5,8,8a-hexahydro-7-indolizinyl]-1H-indole]	–	> 75%	–
C1=C(c2ccc3[nH]cc(C4=CC5CCCN5CC4)c3c2)CCOC1 [Example 8b, 5-(5,6-Dihydro-2H-pyran-4-yl)-3-[(8a-R,S)-1,2,3,5,6,8a-hexahydro-7-indolizinyl]-1H-indole]	–	> 75%	–
C1=C(c2ccc3[nH]cc(C4=CCN5CCCC5C4)c3c2)CCCC1 [Example 8c, 5-(Cyclohexen-1-yl)-3-[(8a-R,S)-1,2,3,5,8,8a-hexahydro-7-indolizinyl]-1H-indole]	< 50%	> 75%	–
C1=C(c2ccc3[nH]cc(C4=CC5CCCN5CC4)c3c2)CCCC1 [Example 8d, 5-(Cyclohexen-1-yl)-3-[(8a-R,S)-1,2,3,5,6,8a-hexahydro-7-indolizinyl]-1H-indole]	–	> 75%	–
C1=C(c2ccc3[nH]cc(C4=CCN5CCCC5C4)c3c2)CCSC1 [Example 8e, 5-(5,6-Dihydro-2H-thiopyran-4-yl)-3-[(8a-R,S)-1,2,3,5,8,8a-hexahydro-7-indolizinyl]-1H-indole]	< 50%	> 75%	–
C1=C(c2ccc3[nH]cc(C4=CC5CCCN5CC4)c3c2)CCSC1 [Example 8f, 5-(5,6-Dihydro-2H-thiopyran-4-yl)-3-[(8a-R,S)-1,2,3,5,6,8a-hexahydro-7-indolizinyl]-1H-indole]	–	> 75%	–
c1cc2[nH]cc(C3CCN4CCCC4C3)c2cc1C1CCOCC1 [Example 9g, 5-(Tetrahydropyran-4-yl)-[(7-R,S)(8a-R,S)-octahydro-7-indolizinyl]-1H-indole]	–	> 75%	–
c1csc(-c2ccc3[nH]cc(C4CCN5CCCC5C4)c3c2)c1 [Example 14c, 3-[(7-R,S)(8a-R,S)-Octahydro-7-indolizinyl]-5-(2-thienyl)-1H-indole]	< 50%	> 75%	decrease
